Patent US20100284992A1 (priority 2006, published 2010)
Where a SMILES comes first, the peptide text is derived from it. The star is where a group is joined. Cbz = O=C(OCc1ccccc1)*; CH2F = FC*

Tests used:
HUVEC = type: cell-based, Homo sapiens
[1] = molecular target: Pseudomonas aeruginosa hemolytic phospholipase C PlcHR2, wild type (Pseudomonas aeruginosa, UniProt P06200); type: biochemical
Sequence of Pseudomonas aeruginosa hemolytic phospholipase C PlcHR2, wild type (P06200 39-730 limits assumed): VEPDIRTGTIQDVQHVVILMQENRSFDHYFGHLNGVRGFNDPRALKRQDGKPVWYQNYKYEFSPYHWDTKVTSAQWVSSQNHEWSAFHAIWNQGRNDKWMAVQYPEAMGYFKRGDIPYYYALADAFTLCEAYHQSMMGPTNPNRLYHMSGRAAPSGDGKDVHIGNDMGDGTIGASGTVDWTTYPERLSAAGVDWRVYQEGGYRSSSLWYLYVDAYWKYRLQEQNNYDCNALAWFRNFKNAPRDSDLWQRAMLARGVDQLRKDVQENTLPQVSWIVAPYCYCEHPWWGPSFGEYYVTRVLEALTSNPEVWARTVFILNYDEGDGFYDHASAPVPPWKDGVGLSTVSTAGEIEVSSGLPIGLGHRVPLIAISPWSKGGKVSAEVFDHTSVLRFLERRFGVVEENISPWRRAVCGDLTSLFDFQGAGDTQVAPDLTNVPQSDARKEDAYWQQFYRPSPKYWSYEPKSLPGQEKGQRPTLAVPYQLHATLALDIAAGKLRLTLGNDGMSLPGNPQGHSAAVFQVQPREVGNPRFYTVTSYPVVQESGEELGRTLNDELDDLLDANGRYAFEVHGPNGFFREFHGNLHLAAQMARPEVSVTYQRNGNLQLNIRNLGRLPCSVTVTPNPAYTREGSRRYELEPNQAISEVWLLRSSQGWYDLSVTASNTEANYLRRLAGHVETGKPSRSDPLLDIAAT

COC(=O)C[C@H](NC(=O)[C@H](C)NC(=O)[C@@H](NC(=O)OCc1ccccc1)C(C)C)C(=O)CF [Z-VAD-FMK] (Cbz-Val-Ala-Asp(OMe)-CH2F)
reduction of PlcHR2-induced LDH release (HUVEC): reduced the amount of LDH release

C[N+](C)(C)CCOP(=O)([O-])Oc1ccc([N+](=O)[O-])cc1 [NPPC, ρ-nitrophenyl-phosphorylcholine]
Km ([1]; pH 7.2): 19 mM
Vmax ([1]; pH 7.2): 147 ± 6 µmol/min/mg
kcat ([1]; pH 7.2, 37° C.): 192 s⁻¹
